Assay results: patent publication US7718768B2, “Biologically active peptide [sequence]” (CMS Peptides Patent Holding Company Limited, priority 2001, dated 2010)
Marks after values point to notes of the source that are not given here. No end group written: not given here.

Assays:
T lymphocyte = T lymphocyte IL-2 secretion test (HT-2 cell bioassay of ConA supernatant); assay type: in vivo, BALB/c mice; settings: IFN-γ and IL-2 groups 3×10^5 IU/kg/day, X ± SD
Description: The above substances were all dissolved in 0.5 ml saline and injected intraperitoneal (i.p.) for 15 continuous days, once per day.
Spleen cells of density 1×10^6/ml were placed onto a 96 wells cell culture plate, 100 μl/well, three parallel wells each of the assay sample and control sample per mouse. To the assay wells, 100 μl/well ConA of 100 μg/ml in RPMI-1640 was added, and 100 μl/well plain RPMI-1640 was used for the controls. The cells were incubated for 66 hrs at 37° C., 5% CO2. The cells were then pelleted by centrifugation at 150 g for 10 minutes.
HT-2 cells at log phase were collected by centrifugation at 150 g for 10 minutes, and washed three times with cold Hank's solution by re-suspension and centrifugation. The collected HT-2 cells were re-suspended in RPMI-1640 and incubated at 37° C., 5% CO2 for 30 minutes. The cells were further washed twice with RPMI-1640 by re-suspension and centrifugation, and re-suspended to final concentration of 2×10^5/ml with RPMI-1640.
rIL-2 was diluted to the following concentration with RPMI-1640: 500 IU/ml, 250 IU/ml, 125 IU/ml, 62.5 IU/ml, 31.25 IU/ml, and […].
A 96 well cell culture plate was set up with three parallel wells per combination:
Negative control: 100 μl RPMI-1640+100 μl HT-2 cell suspension
rIL-2 standard: 100 μl rIL-2 solution+100 μl HT-2 cell suspension
Assay well: 100 μl diluted supernatant+100 μl HT-2 cell suspension
The plate was incubated at 37° C., 5% CO2 for 68 hours, then centrifuged at 150 g for 15 minutes and the supernatant removed. 100 μl 0.5 mg/ml MTT in RPMI-1640 without phenolsulfonphthalein was added into each well. After shaking for 3-4 minutes to re-suspend the cells, continue to incubate for another 4 hours. Samples were then centrifuged at 150 g for 15 minutes and the supernatant was removed. To each well, 120 μl 40 mM HCl-2-propanol was added, mixed for 3-4 minutes and OD analyzed at 570 nm, referenced at 630 nm with an ELISA plate reader.
The average OD of the three parallel wells of each dilution was taken and plotted against concentration on a semi-log paper, concentration on the X-axis. The concentration at 50% OD saturation was obtained for both the testing supernatant and rIL-2.

anti-SRBC antibody = test: humoral immunity (SRBC hemolysis index) of mice bearing transplanted B16 melanoma; assay type: in vivo, C57BL/6 mice; parameters: key: index = (OD540 of test sample ÷ reference OD540) × 500
Description: Intraperitoneal injection, once per day. […] Treatment of all groups with testing substance lasted for 30 days or until the animal died unless otherwise specified.
Stock B16 mouse melanoma cells were incubated in DMEM/F12 medium supplemented with 10% fetal bovine serum, 37° C./5% CO2 for 72 hrs, then washed 3-4 times with Hank's solution. The cell concentration was adjusted to 1×10^5 per ml with Hank's solution and 0.1 ml of the cell suspension was injected via the tail vein into the testing mice to generate the B16 melanoma bearing animal model. Treatment with test substance started as described in section Method 1.
Sheep red blood cells (SRBC) were prepared by collecting blood from the cervical vein and put into a sterile flask with glass beads. The flask was shaken for 3 minutes and the blood then mixed with Alsever solution (glucose 2.05 g, NaCl 0.4 g, […] 0.8 g, adjust to 100 ml with distilled water) and stored at 4° C. Immediately before use, samples were centrifuged at 130 g, 5 minutes to collect the SRBC. The cells were washed two times by re-suspension and centrifugation in normal saline. Then the cell pellet was collected by centrifugation at 180 g for 10 minutes and re-suspended in saline to make the final working SRBC suspension, 2% (v/v).
Complement was prepared by adding 10 volumes of fresh Cavy serum into one volume centrifuge packed SRBC, and then gently shaken for 30 minutes at 4° C. The SRBC was removed by centrifugation at 200 g for 10 minutes. 10 volumes of normal saline were added to obtain the working complement solution.
On the testing animals, on the 27th date of test substance treatment, 0.2 ml of the working SRBC cell suspension was injected into each animal to raise antibody. On the day after the last test substance administration, blood was collected from the eye canthus and left at room temperature for one hour for serum exudation. After centrifugation at 200 g for 10 minutes, the collected serum was diluted by 500 times with normal saline.
To 1 ml diluted mouse serum of each mouse, 0.5 ml SRBC suspension was added. Ice cold. Then 1 ml working complement solution was added and incubated at 37° C. water bath for 10 minutes. Reactions were terminated by ice cold. Samples were then centrifuged at 200 g for 10 minutes to obtain the supernatant.
To 1 ml of this supernatant, 3 ml Drabkin solution was added and left at room temperature for 10 minutes. OD540nm was obtained.
Reference OD540nm was obtained by mixing 0.25 ml SRBC suspension with Drabkin solution to 4 ml and placed at room temperature for 10 minutes before OD540nm was taken. Hemolysis index=(OD540nm of test sample÷reference OD540 nm)×500 6.2 After the Humoral Immunity Study, the Mice were Killed by Cervical Vertebra Dislocation. Postmortum Examination of the Animals was Performed. The Pathological Changes were Recorded, and the Numbers of Melanoma Lung Metastasis Foci were Counted. Results 1. The Effect of Peptide on the Cellular Phagocytosis in BALB/c Mice with Transplanted S180 Sarcoma (Method 2.1)

[1] = peptide 50 μg/kg/day i.p. 15 days
[2] = peptide 500 μg/kg/day i.p. 15 days
[3] = peptide 0.5 μg/kg/day i.p. 15 days

For FNFVPP [CMS003], the “activity of T lymphocyte in secreting IL-2” value (from here on “activity of T lymphocyte”) (T lymphocyte; [1]) was 86 ± 9*^ IU, the Hemolysis index (anti-SRBC antibody; 0.5 μg/kg i.p. once per day) was 61.6 ± 26.9*^$ and the Hemolysis index (anti-SRBC antibody; 5 μg/kg i.p. once per day) was 37.2 ± 15.9*^$. The Hemolysis index (anti-SRBC antibody; 50 μg/kg i.p. once per day) was 38.7 ± 13.5*^$ and the Hemolysis index (anti-SRBC antibody; 500 μg/kg i.p. once per day) was 35.9 ± 13.0*^$.

In the case of IGMESAGIHETTY [CMS016], the Hemolysis index (anti-SRBC antibody; 500 μg/kg i.p. once per day) is reported as 43.3 ± 29.9.

With KAVGHLDDLPGAL [CMS008] the Hemolysis index (anti-SRBC antibody; 0.5 μg/kg i.p. once per day) was 42.7 ± 18.4*^$, the Hemolysis index (anti-SRBC antibody; 5 μg/kg i.p. once per day) was 38.9 ± 12.0*^$ and the Hemolysis index (anti-SRBC antibody; 50 μg/kg i.p. once per day) was 37.1 ± 16.7*^$. The Hemolysis index (anti-SRBC antibody; 500 μg/kg i.p. once per day) was 50.1 ± 17.8*^$.

LRVAPEEHPTL [CMS009] was tested, and the “activity of T lymphocyte” value (T lymphocyte; [2]) was 114 ± 13*^@^ IU.

With PSIVGRPRHQGVM [CMS015] the “activity of T lymphocyte” value (T lymphocyte; [2]) was 85 ± 17*^ IU.

PTTKTYFPHF [CMS001] was tested, and the “activity of T lymphocyte” value (T lymphocyte; [1]) was 60 ± 10 IU, the Hemolysis index (anti-SRBC antibody; 0.5 μg/kg i.p. once per day) was 51.0 ± 16.2*^$ and the Hemolysis index (anti-SRBC antibody; 5 μg/kg i.p. once per day) was 41.3 ± 17.7*^$. The Hemolysis index (anti-SRBC antibody; 50 μg/kg i.p. once per day) was 45.0 ± 31.9*^$ and the Hemolysis index (anti-SRBC antibody; 500 μg/kg i.p. once per day) was 36.0 ± 10.2*^$.

For “Phe Val Asn Asp (FVND; listed as Sus scrofa) [CMS035]”, the Hemolysis index (anti-SRBC antibody; 5 μg/kg i.p. once per day) was 38.9 ± 21.2*^$, the Hemolysis index (anti-SRBC antibody; 50 μg/kg i.p. once per day) was 44.7 ± 22.7*^$ and the Hemolysis index (anti-SRBC antibody; 500 μg/kg i.p. once per day) was 40.5 ± 25.8.

With “Pro Glu Asn Phe (PENF; listed as Sus scrofa) [CMS034]” the “activity of T lymphocyte” value (T lymphocyte; [3]) was 85 ± 10*^ IU, the Hemolysis index (anti-SRBC antibody; 0.5 μg/kg i.p. once per day) was 50.8 ± 18.4*^$ and the Hemolysis index (anti-SRBC antibody; 5 μg/kg i.p. once per day) was 43.0 ± 11.7*^$. For the same molecule, the Hemolysis index (anti-SRBC antibody; 50 μg/kg i.p. once per day) was 30.2 ± 10.9.

With RVAPEEHPTL [CMS011] the “activity of T lymphocyte” value (T lymphocyte; [3]) was 101 ± 19*^@^ IU, the Hemolysis index (anti-SRBC antibody; 0.5 μg/kg i.p. once per day) was 32.0 ± 14.7 and the Hemolysis index (anti-SRBC antibody; 500 μg/kg i.p. once per day) was 34.4 ± 19.4.

“Tyr Ser Leu (YSL; listed as Sus scrofa) [CMS024]” was tested, and the Hemolysis index (anti-SRBC antibody; 0.5 μg/kg i.p. once per day) was 43.0 ± 10.7*^$, the Hemolysis index (anti-SRBC antibody; 5 μg/kg i.p. once per day) was 42.2 ± 11.8*^$ and the Hemolysis index (anti-SRBC antibody; 50 μg/kg i.p. once per day) was 27.8 ± 9.1. For the same molecule, the Hemolysis index (anti-SRBC antibody; 500 μg/kg i.p. once per day) was 30.1 ± 10.0.

For VAPEEHPTLLTEAPLNPK [CMS010], the “activity of T lymphocyte” value (T lymphocyte; [3]) was 66 ± 11 IU, the “activity of T lymphocyte” value (T lymphocyte; [2]) was 125 ± 17*^@^ IU and the Hemolysis index (anti-SRBC antibody; 0.5 μg/kg i.p. once per day) was 34.9 ± 10.5*^$. For the same molecule, the Hemolysis index (anti-SRBC antibody; 5 μg/kg i.p. once per day) was 51.0 ± 14.6*^$, the Hemolysis index (anti-SRBC antibody; 50 μg/kg i.p. once per day) was 39.6 ± 7.7*^$ and the Hemolysis index (anti-SRBC antibody; 500 μg/kg i.p. once per day) was 50.1 ± 16.7*^$.

With VGMGQKDSY [CMS019] the Hemolysis index (anti-SRBC antibody; 0.5 μg/kg i.p. once per day) was 42.0 ± 12.0*^$, the Hemolysis index (anti-SRBC antibody; 5 μg/kg i.p. once per day) was 35.4 ± 15.1*^$ and the Hemolysis index (anti-SRBC antibody; 50 μg/kg i.p. once per day) was 28.3 ± 7.6.

B1: IFN-γ: recombinant mouse interferon-γ, Beijing Biotech Inc.; positive control immunostimulant (protein, UniProt P01580 23-155, looked up)
Interferon gamma: HGTVIESLESLNNYFNSSGIDVEEKSLFLDIWRNWQKDGDMKILQSQIISFYLRLFEVLKDNQAISNNISVIESHLITTFFSNSKAKKDAFMSIAKFEVNNPQVQRQAFNELIRVVHQLLPESSLRKRKRSRC
With B1 the “activity of T lymphocyte” value (T lymphocyte; [3]) was 87 ± 15 IU, the “activity of T lymphocyte” value (T lymphocyte; peptide 5 μg/kg/day i.p. 15 days) was 96 ± 14 IU and the “activity of T lymphocyte” value (T lymphocyte; [1]) was 99 ± 16 IU. The “activity of T lymphocyte” value (T lymphocyte; [2]) was 100 ± 18 IU and the Hemolysis index (anti-SRBC antibody; 3 × 10^5 IU/kg i.p. once per day) was 60.5 ± 17.4.
